Experimental data reported in PubChem BioAssay (NCI).
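How tested: cells in 96-well plates exposed to compound for 48 hours at five concentrations. Abbreviation: GI50, concentration required for 50% inhibition of growth. At the TGI there is no net growth.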

Columns and labels:
Assay in all cases: NCI anticancer screen, dose series, 48 h
786-0 renal = tested on: 786-0 renal
A549 NSCLC = tested on: A549 NSCLC
ACHN renal = tested on: ACHN renal
BT-549 breast = tested on: BT-549 breast
CAKI-1 renal = tested on: CAKI-1 renal
CCRF-CEM leukemia = tested on: CCRF-CEM leukemia
COLO 205 colon = tested on: COLO 205 colon
DU-145 prostate = tested on: DU-145 prostate
EKVX NSCLC = tested on: EKVX NSCLC
HCC-2998 colon = tested on: HCC-2998 colon
HCT-116 colon = tested on: HCT-116 colon
HCT-15 colon = tested on: HCT-15 colon
HL-60(TB) leukemia = tested on: HL-60(TB) leukemia
HOP-62 NSCLC = tested on: HOP-62 NSCLC
HOP-92 NSCLC = tested on: HOP-92 NSCLC
HS 578T breast = tested on: HS 578T breast
HT29 colon = tested on: HT29 colon
IGROV1 ovarian = tested on: IGROV1 ovarian
K-562 leukemia = tested on: K-562 leukemia
KM12 colon = tested on: KM12 colon
LOX IMVI melanoma = tested on: LOX IMVI melanoma
M14 melanoma = tested on: M14 melanoma
MALME-3M melanoma = tested on: MALME-3M melanoma
MCF7 breast = tested on: MCF7 breast
MDA-MB-231 breast = tested on: MDA-MB-231 breast
MDA-MB-435 = tested on: MDA-MB-435
MOLT-4 leukemia = tested on: MOLT-4 leukemia
NCI-H226 lung = tested on: NCI-H226 lung
NCI-H23 lung = tested on: NCI-H23 lung
NCI-H460 lung = tested on: NCI-H460 lung
NCI-H522 lung = tested on: NCI-H522 lung
NCI/ADR-RES ovarian = tested on: NCI/ADR-RES ovarian
OVCAR-3 ovarian = tested on: OVCAR-3 ovarian
OVCAR-4 ovarian = tested on: OVCAR-4 ovarian
OVCAR-5 ovarian = tested on: OVCAR-5 ovarian
OVCAR-8 ovarian = tested on: OVCAR-8 ovarian
PC-3 prostate = tested on: PC-3 prostate
RPMI-8226 leukemia = tested on: RPMI-8226 leukemia
RXF 393 renal = tested on: RXF 393 renal
SF-268 CNS = tested on: SF-268 CNS
SF-295 CNS = tested on: SF-295 CNS
SF-539 CNS = tested on: SF-539 CNS
SK-MEL-2 melanoma = tested on: SK-MEL-2 melanoma
SK-MEL-28 melanoma = tested on: SK-MEL-28 melanoma
SK-MEL-5 melanoma = tested on: SK-MEL-5 melanoma
SK-OV-3 ovarian = tested on: SK-OV-3 ovarian
SN12C renal = tested on: SN12C renal
SNB-19 CNS = tested on: SNB-19 CNS
SR leukemia = tested on: SR leukemia
SW-620 colon = tested on: SW-620 colon
T-47D breast = tested on: T-47D breast
TK-10 renal = tested on: TK-10 renal
U251 CNS = tested on: U251 CNS
UACC-257 melanoma = tested on: UACC-257 melanoma
UACC-62 melanoma = tested on: UACC-62 melanoma
UO-31 renal = tested on: UO-31 renal

## Cc1cc(OCc2nnc3n2N=C(c2ccc(Cl)cc2Cl)CS3)ccc1Cl
786-0 renal
  GI50: > 100 µM
  TGI: > 100 µM
A549 NSCLC
  GI50: 56.3 µM
  TGI: > 100 µM
ACHN renal
  GI50: 45.4 µM
  TGI: > 100 µM
BT-549 breast
  GI50: 25.9 µM
  TGI: > 100 µM
CAKI-1 renal
  GI50: 44.2 µM
  TGI: > 100 µM
CCRF-CEM leukemia
  GI50: 42.2 µM
  TGI: > 100 µM
COLO 205 colon
  GI50: 60.2 µM
  TGI: > 100 µM
DU-145 prostate
  GI50: 69.7 µM
  TGI: > 100 µM
EKVX NSCLC
  GI50: 6.89 µM
  TGI: 81.2 µM
HCC-2998 colon
  GI50: 68.6 µM
  TGI: > 100 µM
HCT-116 colon
  GI50: 53 µM
  TGI: > 100 µM
HCT-15 colon
  GI50: 39.4 µM
  TGI: > 100 µM
HL-60(TB) leukemia
  GI50: 45.9 µM
  TGI: > 100 µM
HOP-62 NSCLC
  GI50: > 100 µM
  TGI: > 100 µM
HOP-92 NSCLC
  GI50: > 100 µM
  TGI: > 100 µM
HS 578T breast
  GI50: 37.9 µM
  TGI: > 100 µM
HT29 colon
  GI50: 59.8 µM
  TGI: > 100 µM
IGROV1 ovarian
  GI50: 52.3 µM
  TGI: > 100 µM
K-562 leukemia
  GI50: 54.7 µM
  TGI: > 100 µM
KM12 colon
  GI50: 53.3 µM
  TGI: > 100 µM
LOX IMVI melanoma
  GI50: 36.3 µM
  TGI: > 100 µM
M14 melanoma
  GI50: 43.4 µM
  TGI: > 100 µM
MALME-3M melanoma
  GI50: 68.9 µM
  TGI: > 100 µM
MCF7 breast
  GI50: 39.1 µM
  TGI: > 100 µM
MDA-MB-231 breast
  GI50: 30.8 µM
  TGI: 90.4 µM
MDA-MB-435
  GI50: 26.5 µM
  TGI: > 100 µM
MOLT-4 leukemia
  GI50: 47.7 µM
  TGI: > 100 µM
NCI-H226 lung
  GI50: 43.6 µM
  TGI: > 100 µM
NCI-H23 lung
  GI50: 61 µM
  TGI: > 100 µM
NCI-H460 lung
  GI50: 62.8 µM
  TGI: > 100 µM
NCI-H522 lung
  GI50: 22.6 µM
  TGI: 65 µM
NCI/ADR-RES ovarian
  GI50: 51.8 µM
  TGI: > 100 µM
OVCAR-3 ovarian
  GI50: 35.9 µM
  TGI: > 100 µM
OVCAR-4 ovarian
  GI50: 59.6 µM
  TGI: > 100 µM
OVCAR-5 ovarian
  GI50: > 100 µM
  TGI: > 100 µM
OVCAR-8 ovarian
  GI50: 45 µM
  TGI: > 100 µM
PC-3 prostate
  GI50: 51.3 µM
  TGI: > 100 µM
RPMI-8226 leukemia
  GI50: 40.6 µM
  TGI: > 100 µM
RXF 393 renal
  GI50: 52.2 µM
  TGI: > 100 µM
SF-268 CNS
  GI50: 73.4 µM
  TGI: > 100 µM
SF-295 CNS
  GI50: 28.4 µM
  TGI: > 100 µM
SF-539 CNS
  GI50: > 100 µM
  TGI: > 100 µM
SK-MEL-2 melanoma
  GI50: 76.2 µM
  TGI: > 100 µM
SK-MEL-28 melanoma
  GI50: 79.3 µM
  TGI: > 100 µM
SK-MEL-5 melanoma
  GI50: 25.6 µM
  TGI: > 100 µM
SK-OV-3 ovarian
  GI50: > 100 µM
  TGI: > 100 µM
SN12C renal
  GI50: 38.7 µM
  TGI: > 100 µM
SNB-19 CNS
  GI50: 97.2 µM
  TGI: > 100 µM
SR leukemia
  GI50: 43.3 µM
  TGI: > 100 µM
SW-620 colon
  GI50: > 100 µM
  TGI: > 100 µM
T-47D breast
  GI50: 40.5 µM
  TGI: > 100 µM
TK-10 renal
  GI50: 32 µM
  TGI: > 100 µM
U251 CNS
  GI50: 71.3 µM
  TGI: > 100 µM
UACC-257 melanoma
  GI50: 42.1 µM
  TGI: 93.2 µM
UACC-62 melanoma
  GI50: 34.4 µM
  TGI: > 100 µM
UO-31 renal
  GI50: 34 µM
  TGI: > 100 µM
